Measured values reported in patent US11566007B2, “Ras inhibitors” (Revolution Medicines, Inc., priority 2019, dated 2023).
Values joined by “and” are separate entries in the source; they are usually repeats but may differ in a detail not shown here. Equal entries are not always repeated. Where two headings read alike, the source gives them in different places.

Experiments:
[1] = system: NCI-H358 cells (K-Ras G12C); assay: Potency assay: pERK in NCI-H358 cells; assay type: cell-based, human; conditions: Homo sapiens
Procedure, shortened: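 Compounds are dosed as ten 3-fold dilutions from a 10 mM DMSO stock, in duplicate, and left on cells for 4 h at 37 °C, 5% CO2. Phospho-ERK1/2 is then quantified by AlphaLISA SureFire Ultra or In-Cell Western, and IC50 is derived from a 4-parameter sigmoid against log concentration.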

K-Ras G13C = K-Ras G13C (Homo sapiens (Human), UniProt P01116+P62937, G13C); assay: Ras-Raf (BRAF RBD) disruption / FRET / MOA assay, KRAS G13C; assay type: biochemical; conditions: KRAS G13C; Ras-Raf disruption/FRET/MOA assay; read-out: IC50* KRAS G13C FRET data
Protocol: (§1) The purpose of this biochemical assay is to measure the ability of test compounds to facilitate ternary complex formation between a nucleotide-loaded Ras isoform and cyclophilin A; the resulting ternary complex disrupts binding to a BRAF^RBD construct, inhibiting Ras signaling through a RAF effector.
(§2) Compound is present in plate wells as a 10-point 3-fold dilution series starting at a final concentration of 30 μM. After incubation at 25° C. for 3 hours, a mixture of Anti-His Eu-W1024 and anti-GST allophycocyanin is then added to assay sample wells at final concentrations of 10 nM and 50 nM, respectively, and the reaction incubated for an additional 1.5 hours. […] Compounds that facilitate disruption of a Ras:RAF complex are identified as those eliciting a decrease in the TR-FRET ratio relative to DMSO control wells.
(§3) This protocol may also be executed substituting other Ras proteins or nucleotides.
(§4) The purpose of this biochemical assay was to measure the ability of test compounds to facilitate ternary complex formation between a nucleotide-loaded K-Ras isoform and Cyclophilin A; the resulting ternary complex disrupts binding to a BRAF^RBD construct, inhibiting K-Ras signaling through a RAF effector. Data is reported as IC50 values.
as §2, with “Compound was” for “Compound is”, “allophycocyanin was” for “allophycocyanin is”, “a K-Ras:RAF” for “a Ras:RAF”, “complex were” for “complex are”

KRAS G12D = KRAS G12D (Homo sapiens (Human), UniProt P01116+P62937, G12D); assay: Ras-Raf (BRAF RBD) disruption / FRET / MOA assay, KRAS G12D; assay type: biochemical
Procedure, shortened: (§5)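 Compound-driven ternary complex of nucleotide-loaded Ras with cyclophilin A, disrupting BRAF RBD binding. 10-point 3-fold dilution from 30 μM final, 3 h at 25° C, then anti-His Eu-W1024 (10 nM) and anti-GST allophycocyanin (50 nM) for 1.5 h. IC50 from TR-FRET ratio decrease versus DMSO.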

K-Ras G12C = K-Ras G12C (Homo sapiens (Human), UniProt P01116+P62937, G12C); assay: Ras-Raf (BRAF RBD) disruption / FRET / MOA assay, KRAS G12C; assay type: biochemical; conditions: KRAS G12C; Ras-Raf disruption/FRET/MOA assay; read-out: IC50* KRAS G12C FRET data
Protocol: as §1, §2, §3, §4
as §2, with “Compound was” for “Compound is”, “allophycocyanin was” for “allophycocyanin is”, “a K-Ras:RAF” for “a Ras:RAF”, “complex were” for “complex are”

KRAS G12V = KRAS G12V (Homo sapiens (Human), UniProt P01116+P62937, G12V); assay: Ras-Raf (BRAF RBD) disruption / FRET / MOA assay, KRAS G12V; assay type: biochemical; conditions: read-out: IC50* KRAS G12V FRET data
Protocol: as §1, §2, §3, §4
as §2, with “Compound was” for “Compound is”, “allophycocyanin was” for “allophycocyanin is”, “a K-Ras:RAF” for “a Ras:RAF”, “complex were” for “complex are”

KRAS WT = KRAS WT (Homo sapiens (Human), UniProt P01116+P62937); assay: Ras-Raf (BRAF RBD) disruption / FRET / MOA assay, KRAS WT; assay type: biochemical; conditions: read-out: IC50* KRAS WT FRET data
Protocol: as §1, §2, §3, §4
as §2, with “Compound was” for “Compound is”, “allophycocyanin was” for “allophycocyanin is”, “a K-Ras:RAF” for “a Ras:RAF”, “complex were” for “complex are”

KRAS G12S = KRAS G12S (Homo sapiens (Human), UniProt P01116+P62937, G12S); assay: Ras-Raf (BRAF RBD) disruption / FRET / MOA assay, KRAS G12S; assay type: biochemical
Procedure, shortened: as §5

NCI-H358 (K-Ras G12C) = assay: CellTiter-Glo cell viability assay, NCI-H358; assay type: cell-based, human; conditions: Homo sapiens, NCI-H358, 120 h, NCI-H358, 5-day treatment; class symbols; read-out: Additional H358 Cell Viability assay data (K-Ras G12C, IC50)
Procedure, shortened: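 Luminescent viability readout on day 5 after direct compound addition to plated cells; plates sat ~30 min at room temperature before reading. Values expressed as percent of mean DMSO signal, curves fit with a four-parameter logistic model.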

[2] = NCI-H358, H358 KRAS G12C, read-out: pERK EC50
[3] = Ras-Raf disruption/FRET/MOA assay; class symbols; read-out: KRAS G12D FRET data IC50
[4] = Ras-Raf disruption/FRET/MOA assay; class symbols; read-out: KRAS G12S FRET data IC50

Chain of KRAS G12S (P01116-2 other isoform, or with tags, fused parts or gaps G12S): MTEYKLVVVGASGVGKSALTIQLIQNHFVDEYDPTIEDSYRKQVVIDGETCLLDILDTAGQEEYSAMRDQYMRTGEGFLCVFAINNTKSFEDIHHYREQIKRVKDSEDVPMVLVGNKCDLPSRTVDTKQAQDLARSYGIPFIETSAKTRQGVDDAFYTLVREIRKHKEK
Chain of KRAS G12S (P62937 whole entry): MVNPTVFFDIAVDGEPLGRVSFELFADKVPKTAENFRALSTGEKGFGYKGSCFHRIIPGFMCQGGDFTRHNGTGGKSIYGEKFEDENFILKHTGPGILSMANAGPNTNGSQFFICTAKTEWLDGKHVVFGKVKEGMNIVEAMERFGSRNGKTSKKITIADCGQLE
Chain of KRAS G12V (P01116-2 other isoform, or with tags, fused parts or gaps G12V): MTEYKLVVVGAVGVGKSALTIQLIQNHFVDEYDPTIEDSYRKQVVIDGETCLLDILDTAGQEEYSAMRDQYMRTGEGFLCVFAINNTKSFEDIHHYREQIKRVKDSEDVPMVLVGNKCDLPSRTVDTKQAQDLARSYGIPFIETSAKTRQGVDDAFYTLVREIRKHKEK
Chain of KRAS G12V (P62937 whole entry): as the sequence (P62937 whole entry) above
Chain of KRAS WT (P01116-2 other isoform, or with tags, fused parts or gaps): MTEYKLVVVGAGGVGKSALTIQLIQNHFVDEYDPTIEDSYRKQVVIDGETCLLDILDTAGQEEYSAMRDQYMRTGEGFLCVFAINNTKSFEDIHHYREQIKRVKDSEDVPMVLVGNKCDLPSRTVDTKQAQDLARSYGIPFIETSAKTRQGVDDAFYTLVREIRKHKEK
Chain of KRAS WT (P62937 whole entry): as the sequence (P62937 whole entry) above
Chain of K-Ras G13C (P01116-2 other isoform, or with tags, fused parts or gaps G13C): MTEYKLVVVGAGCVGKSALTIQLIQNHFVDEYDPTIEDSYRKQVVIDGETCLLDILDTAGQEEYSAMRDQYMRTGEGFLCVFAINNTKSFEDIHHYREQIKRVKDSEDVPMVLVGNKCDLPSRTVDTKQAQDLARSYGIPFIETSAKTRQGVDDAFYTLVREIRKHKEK
Chain of K-Ras G13C (P62937 whole entry, canonical isoform): as the sequence (P62937 whole entry) above
Chain of K-Ras G12C (P01116-2 other isoform, or with tags, fused parts or gaps G12C): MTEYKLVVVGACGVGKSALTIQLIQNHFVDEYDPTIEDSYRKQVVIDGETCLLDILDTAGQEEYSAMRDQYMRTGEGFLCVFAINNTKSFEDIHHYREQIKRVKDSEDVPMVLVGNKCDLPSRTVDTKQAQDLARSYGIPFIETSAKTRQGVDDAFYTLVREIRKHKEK
Chain of K-Ras G12C (P62937 whole entry): as the sequence (P62937 whole entry) above
Chain of KRAS G12D (P01116-2 other isoform, or with tags, fused parts or gaps G12D): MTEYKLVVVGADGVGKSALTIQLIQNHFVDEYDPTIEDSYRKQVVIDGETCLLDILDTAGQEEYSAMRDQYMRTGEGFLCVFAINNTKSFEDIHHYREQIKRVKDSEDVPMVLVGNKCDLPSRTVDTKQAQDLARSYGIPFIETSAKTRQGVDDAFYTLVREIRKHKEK
Chain of KRAS G12D (P62937 whole entry): as the sequence (P62937 whole entry) above

Row | Structure (SMILES) | EC50 [1, 2] [nM] | IC50 (K-Ras G13C) | IC50 (KRAS G12D; [3]) | IC50 (K-Ras G12C) | IC50 (KRAS WT) | IC50 (KRAS G12S; [4]) | IC50 (KRAS G12V) | IC50 (NCI-H358 (K-Ras G12C)) [nM] | EC50 ([1]; NCI-H358, read-out: pERK EC50) [nM] | IC50 (KRAS G12D; read-out: KRAS G12D FRET data IC50; Ras-Raf disruption/FRET/MOA assay; class symbols) [nM] | IC50 (KRAS G12S; read-out: KRAS G12S FRET data IC50; Ras-Raf disruption/FRET/MOA assay; class symbols) [nM]
1 | C=CC(=O)N(C)CCCC(=O)N(C)[C@H](C(=O)N[C@H]1Cc2cc(O)cc(c2)-c2ccc3c(c2)c(c(-c2cccnc2COC)n3CC)CC(C)(C)COC(=O)[C@@H]2CCCN(N2)C1=O)C(C)C [Example A101] | < 5000 | 100 to 1000 nM | 1000 to 10000 nM | 100 to 1000 nM | 100 to 1000 nM | 100 to 1000 nM | 100 to 1000 nM | 100 to 1000 |  |  | 
2 | C=CC(=O)N1CCN(C(=O)N(C)[C@H](C(=O)N[C@H]2Cc3nc(cs3)-c3ccc4c(c3)c(c(-c3cccnc3[C@H](C)OC)n4CC(F)(F)F)CC(C)(C)COC(=O)[C@@H]3CCCN(N3)C2=O)C(C)C)CC1 (atropisomer, axis not shown) [Example A464] |  |  |  |  |  |  | 10 to 100 nM |  | < 5000 | 10 to 100 | 10 to 100
3 | C=CC(=O)N1CC[C@H](C(=O)N(C)[C@H](C(=O)N[C@H]2Cc3cc(O)cc(c3)-c3ccc4c(c3)c(c(-c3ccccc3CCN3CCCC3)n4CC)CC(C)(C)COC(=O)[C@@H]3CCCN(N3)C2=O)C(C)C)C1 [Example A100] | < 5000 | > 10000 nM | > 10000 nM | 1000 to 10000 nM | > 10000 nM | > 10000 nM | > 10000 nM | 100 to 1000 |  |  | 
4 | CCn1c(-c2cccnc2COC)c2c3cc(ccc31)-c1cc(O)cc(c1)C[C@H](NC(=O)[C@H](C(C)C)N(C)C(=O)c1ccc(NC(=O)/C=C/CN(C)C)cn1)C(=O)N1CCC[C@H](N1)C(=O)OCC(C)(C)C2 [Example A067] |  | 10 to 100 nM | 1000 to 10000 nM | 10 to 100 nM | 1000 to 10000 nM | 1000 to 10000 nM | 1000 to 10000 nM |  |  |  | 

The next lines start with results.

Row | EC50 [1, 2] [nM] | IC50 (K-Ras G13C) | IC50 (KRAS G12D; [3]) | IC50 (K-Ras G12C) | IC50 (KRAS WT) | IC50 (KRAS G12S; [4]) | Structure (SMILES) | IC50 (KRAS G12V) | IC50 (NCI-H358 (K-Ras G12C)) [nM] | EC50 ([1]; NCI-H358, read-out: pERK EC50) [nM] | IC50 (KRAS G12D; read-out: KRAS G12D FRET data IC50; Ras-Raf disruption/FRET/MOA assay; class symbols) [nM] | IC50 (KRAS G12S; read-out: KRAS G12S FRET data IC50; Ras-Raf disruption/FRET/MOA assay; class symbols) [nM]
5 | < 5000 | 100 to 1000 nM and > 10000 nM | > 10000 nM | 100 to 1000 nM and 1000 to 10000 nM | 1000 to 10000 nM and > 10000 nM | > 10000 nM | C=CC(=O)N1CCC2(CC1)CCN([C@H](C(=O)N[C@H]1Cc3cc(O)cc(c3)-c3ccc4c(c3)c(c(-c3ccccc3CCOC)n4CC)CC(C)(C)COC(=O)[C@@H]3CCCN(N3)C1=O)C(C)C)C2=O [Example A222] | > 10000 nM |  |  |  | 
6 |  | 10 to 100 nM | 1000 to 10000 nM | 10 to 100 nM | 1000 to 10000 nM | 1000 to 10000 nM | CCn1c(-c2cccnc2COC)c2c3cc(ccc31)-c1cc(O)cc(c1)C[C@H](NC(=O)[C@H](C(C)C)N(C)C(=O)C1CN(C(=O)/C=C/CN(C)C)C1)C(=O)N1CCC[C@H](N1)C(=O)OCC(C)(C)C2 [Example A071] | 1000 to 10000 nM |  |  |  | 
7 | < 5000 | 100 to 1000 nM | 1000 to 10000 nM and > 10000 nM | 100 to 1000 nM and 1000 to 10000 nM | > 10000 nM | > 10000 nM | CCn1c(-c2ccccc2CCOC)c2c3cc(ccc31)-c1cc(O)cc(c1)C[C@H](NC(=O)[C@H](C(C)C)N(C)C(=O)c1ccc(N(C)C(=O)/C=C/CN(C)C)cc1)C(=O)N1CCC[C@H](N1)C(=O)OCC(C)(C)C2 [Example A220] | > 10000 nM | > 1000 |  |  | 
8 |  |  | > 10000 nM | 1000 to 10000 nM |  | > 10000 nM | C=CC(=O)N1CC[C@H](C(=O)N(C)[C@H](C(=O)N[C@H]2Cc3cc(N)cc(c3)-c3ccc4c(c3)c(c(-c3ccccc3CCOC)n4CC)CC(C)(C)COC(=O)[C@@H]3CCCN(N3)C2=O)C(C)C)C1 [Examples A002] |  |  |  |  | 
9 | < 5000 | > 10000 nM | > 10000 nM | 100 to 1000 nM and > 10000 nM | > 10000 nM | 1000 to 10000 nM and > 10000 nM | C=CC(=O)N1CC[C@H](C(=O)N(C)[C@H](C(=O)N[C@H]2Cc3cc(O)cc(c3)-c3ccc4c(c3)c(c(-c3ccccc3CCOC)n4CC)C[C@H](C)COC(=O)[C@@H]3CCCN(N3)C2=O)C(C)C)C1 [Example A215] | 1000 to 10000 nM and > 10000 nM |  |  |  | 
